Assay results taken from ChEMBL document CHEMBL1201862, “PubChem BioAssay data set” (2004).
Activity calls are given as the source filed them.

What was measured:
H4 = assay: Luminescence Cell-Based Dose Response HTS to Identify Activators of 5'UTR Stem-Loop Driven Prion Protein mRNA Translation in H4 Neuroglioblastoma Cells. [Related pubchem assays: 1829 (Project Summary), 1814 (Primary HTS)]; type: functional; settings: Homo sapiens
[1] = Luminescence Cell-Based Dose Confirmation HTS to Identify Activators of 5'UTR Stem-Loop Driven Alpha-Synuclein mRNA Translation in H4 Neuroglioblastoma Cells. [Related pubchem assays: 1829 (Project Summary), 1814 (Primary HTS)]; type: functional
[2] = Luminescence Cell-Based Dose Response HTS to Identify Activators of Luciferase Translation or Activity in H4 […] Cells. [Related pubchem assays: 1829 (Project Summary), 1814 (Primary HTS)]; type: functional
[3] = target: T1, Heat shock factor protein 1 (Mus musculus, UniProt P38532); assay: decrease of HSF1-responsive luciferase luminescence – cell-based, NIH3T3, dose retest, confirmation (AID 2382); type: functional;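 note: NIH3T3 fibroblasts with HSF1-driven luciferase reporter stressed by proteasome inhibitor MG132; luminescence from HSF1-driven luciferase expression after 8 hours of MG132 stress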
T1 sequence (P38532 whole entry): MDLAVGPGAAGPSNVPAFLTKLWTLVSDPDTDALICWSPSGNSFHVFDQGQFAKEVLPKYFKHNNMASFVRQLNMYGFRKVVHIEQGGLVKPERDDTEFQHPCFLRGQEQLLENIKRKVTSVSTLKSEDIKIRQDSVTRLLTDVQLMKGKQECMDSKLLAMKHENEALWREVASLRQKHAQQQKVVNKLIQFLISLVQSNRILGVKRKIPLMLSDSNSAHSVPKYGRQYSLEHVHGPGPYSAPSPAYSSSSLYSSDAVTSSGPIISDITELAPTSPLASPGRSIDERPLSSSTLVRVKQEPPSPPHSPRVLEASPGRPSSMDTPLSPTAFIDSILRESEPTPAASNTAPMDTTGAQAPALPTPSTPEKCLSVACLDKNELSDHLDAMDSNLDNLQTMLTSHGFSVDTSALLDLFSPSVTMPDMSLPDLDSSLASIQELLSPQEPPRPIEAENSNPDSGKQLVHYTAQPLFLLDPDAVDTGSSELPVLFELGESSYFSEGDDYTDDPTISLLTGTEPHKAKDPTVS

[4] = target: T1, Heat shock factor protein 1; assay: enhancement of HSF1-driven luciferase signal – cell-based, NIH3T3, luminescence, dose retest, confirmation (AID 435004); type: functional;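 note: stress induced by proteasome inhibitor MG132 added 30 min after compound; luciferase reporter driven by HSF1 response element in NIH3T3 cells; actives raise luminescence as potentiators of the MG132 stress response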
[5] = target: FAD-linked sulfhydryl oxidase ALR (Homo sapiens, UniProt P55789); assay: ALR-catalysed DTT oxidation blockers – biochemical, H2O2 detection, luminescence, cherry-pick, dose response (AID 493248)
Chain of FAD-linked sulfhydryl oxidase ALR (P55789 whole entry): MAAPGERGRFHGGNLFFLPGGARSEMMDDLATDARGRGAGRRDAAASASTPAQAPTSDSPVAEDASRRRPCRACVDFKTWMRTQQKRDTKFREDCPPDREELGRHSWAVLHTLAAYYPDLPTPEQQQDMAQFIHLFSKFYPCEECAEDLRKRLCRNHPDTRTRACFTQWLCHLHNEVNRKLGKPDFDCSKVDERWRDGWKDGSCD

[6] = viability of uninfected HEp-2 cells – cell-based, HTS, cytotoxicity control for RSV inhibitor project, dose response (AID 2410); type: functional; settings: human respiratory syncytial virus
Large T antigen = Large T antigen (Simian virus 40, UniProt P03070); type: functional, Betapolyomavirus macacae;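 note: Confirmatory-stage PubChem screen for compounds that inhibit SV40 T antigen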
Chain of Large T antigen (P03070 whole entry): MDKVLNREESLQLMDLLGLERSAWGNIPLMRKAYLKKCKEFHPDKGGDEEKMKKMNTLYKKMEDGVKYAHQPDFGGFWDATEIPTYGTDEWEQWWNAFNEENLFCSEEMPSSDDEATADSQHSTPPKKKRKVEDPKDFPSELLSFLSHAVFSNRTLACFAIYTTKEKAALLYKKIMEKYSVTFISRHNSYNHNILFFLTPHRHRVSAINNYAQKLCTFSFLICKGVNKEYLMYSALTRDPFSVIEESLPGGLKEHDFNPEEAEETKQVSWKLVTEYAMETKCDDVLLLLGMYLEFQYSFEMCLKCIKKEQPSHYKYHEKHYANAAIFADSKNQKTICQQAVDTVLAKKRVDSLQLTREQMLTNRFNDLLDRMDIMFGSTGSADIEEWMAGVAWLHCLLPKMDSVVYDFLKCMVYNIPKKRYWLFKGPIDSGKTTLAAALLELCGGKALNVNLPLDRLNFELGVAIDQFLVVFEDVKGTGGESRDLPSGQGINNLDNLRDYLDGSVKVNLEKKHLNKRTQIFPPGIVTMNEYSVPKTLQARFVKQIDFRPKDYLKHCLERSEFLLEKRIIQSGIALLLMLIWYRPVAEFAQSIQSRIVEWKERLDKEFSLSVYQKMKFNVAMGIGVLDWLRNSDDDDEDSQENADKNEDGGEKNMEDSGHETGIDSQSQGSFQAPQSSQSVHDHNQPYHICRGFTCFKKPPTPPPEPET

[7] = target: T2, Rac GTPase-activating protein 1 (Homo sapiens, UniProt Q9H0H5); assay: blockers of MgcRacGAP-driven Rac1 GTP hydrolysis – biochemical, ADP Hunter fluorescence, primary and confirmatory, confirmation (AID 624330); type: functional
T2 sequence (Q9H0H5 whole entry): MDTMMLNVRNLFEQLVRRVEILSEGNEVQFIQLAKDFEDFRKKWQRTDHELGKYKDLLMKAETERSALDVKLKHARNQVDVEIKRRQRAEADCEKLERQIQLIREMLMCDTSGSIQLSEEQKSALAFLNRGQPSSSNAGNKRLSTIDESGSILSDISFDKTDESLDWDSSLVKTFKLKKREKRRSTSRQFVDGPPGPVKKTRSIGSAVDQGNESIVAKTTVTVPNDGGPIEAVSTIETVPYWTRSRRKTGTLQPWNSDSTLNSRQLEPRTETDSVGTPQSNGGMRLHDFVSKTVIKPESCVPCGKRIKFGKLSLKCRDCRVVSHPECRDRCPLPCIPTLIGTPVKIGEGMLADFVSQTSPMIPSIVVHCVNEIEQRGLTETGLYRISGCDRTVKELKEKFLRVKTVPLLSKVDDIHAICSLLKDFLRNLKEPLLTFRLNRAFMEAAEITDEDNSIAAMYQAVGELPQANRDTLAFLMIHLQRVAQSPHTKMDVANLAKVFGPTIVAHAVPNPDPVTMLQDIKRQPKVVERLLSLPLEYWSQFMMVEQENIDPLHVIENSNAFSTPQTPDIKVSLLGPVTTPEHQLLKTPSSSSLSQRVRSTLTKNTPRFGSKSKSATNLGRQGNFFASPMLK

Cytochrome P450 2C19 = Cytochrome P450 2C19 (Homo sapiens, UniProt P33261); assay: Cytochrome panel assay with activity outcomes. Panel member name: p450-cyp2c19 Compounds with AC50 equal or less than 10 uM are considered active; type: functional; settings: read-out: AC50
Chain of Cytochrome P450 2C19 (P33261 whole entry): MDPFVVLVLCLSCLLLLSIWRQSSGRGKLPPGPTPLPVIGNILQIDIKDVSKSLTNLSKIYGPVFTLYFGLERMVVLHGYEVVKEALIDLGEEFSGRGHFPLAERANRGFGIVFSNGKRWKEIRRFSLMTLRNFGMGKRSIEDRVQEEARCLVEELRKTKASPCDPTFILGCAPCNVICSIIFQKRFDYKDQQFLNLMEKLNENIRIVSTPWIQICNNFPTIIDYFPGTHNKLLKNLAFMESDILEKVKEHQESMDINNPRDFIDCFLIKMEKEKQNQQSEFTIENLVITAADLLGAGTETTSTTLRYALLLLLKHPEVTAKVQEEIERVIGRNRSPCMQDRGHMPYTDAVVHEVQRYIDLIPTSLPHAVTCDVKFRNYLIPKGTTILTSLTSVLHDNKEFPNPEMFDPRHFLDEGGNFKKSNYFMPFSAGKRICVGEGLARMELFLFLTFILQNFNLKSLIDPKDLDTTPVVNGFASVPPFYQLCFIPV

[8] = NIH3T3 cell viability loss – ATP luminescence, mouse fibroblasts, counter-screen, dose response (AID 2010); type: functional, cell-based;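 note: cells exposed to compound for about 90 hours before reading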
[9] = Trypanosoma cruzi growth suppression in host cells – NIH3T3 host cells, beta-gal luminescence, confirmation (AID 2044); type: functional, cell-based;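 note: intracellular parasites grown in NIH/3T3 mouse fibroblasts as host cells; luminescent beta-galactosidase reporter signal from transgenic T. cruzi replicating inside host cells; inhibitors lower the luminescence signal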

## CC1(C)CC(=O)c2sc(NC(=O)C3COc4ccccc4O3)nc2C1 (stereo unspecified)
H4
  EC50: > 120 µM (not active)
[1]
  EC50: > 120 µM (not active)
[2]
  EC50: 15.9 µM (active)

## COc1ccc(CCNC(=O)c2cccc([N+](=O)[O-])c2)cc1OC
[3]
  EC50: 2.26 µM (active)

## Cc1cccc(N2C(=O)C3C(c4ccccc4)OC4(C(=O)c5ccccc5C4=O)C3C2=O)c1 (stereo unspecified)
H4
  EC50: > 120 µM (not active)
[1]
  EC50: > 120 µM (not active)
[2]
  EC50: > 120 µM (not active)

## CN(C)c1ccc(C(C[N+](=O)[O-])c2c(N)n(C)c(=O)n(C)c2=O)c(F)c1C#N (stereo unspecified)
[4]
  EC50: > 260 µM (inactive)

## Nc1[nH]cnc2nc(SCCOc3ccc(Cl)cc3)nc1-2
[3]
  EC50: > 195 µM (not active)

## O=C(C1CCCN(S(=O)(=O)c2c[nH]cn2)C1)N1CCN(c2ccc(Cl)cc2)CC1 (stereo unspecified)
[5]
  AC50: > 100 µM (inactive)

## CCOc1ccc2nc(N3CCOCC3)nc(C)c2c1
[1]
  EC50: 32 µM (active)
[2]
  EC50: 0.256 µM (active)

## Cc1cccc(Oc2ccc3c(c2)cc(C(=O)O)n3C)c1
[5]
  AC50: 0.211 µM (active)

## O=c1c2sccc2nc(SCc2ccc([N+](=O)[O-])cc2)n1Cc1ccccn1
[6]
  CC50: 20.4 µM (active)
[4]
  EC50: 57.3 µM (active)

## O=[N+]([O-])c1ccc(/C=N/N=C(/Nc2ccccn2)c2ccccn2)cc1
H4
  EC50: > 120 µM (not active)
[1]
  EC50: > 60 µM (not active)
[2]
  EC50: > 120 µM (not active)

## COc1ccc(/C=C2\C(=O)ON=C2c2ccccc2)cc1
[5]
  AC50: 66.4 µM (active)

## N#CCCn1cc(C(=O)Nc2ccc([N+](=O)[O-])cc2)c(-c2ccccc2)n1
[3]
  EC50: > 195 µM (not active)

## Cc1nnc(SCc2ccccc2)n1CC1CCCO1 (stereo unspecified)
Large T antigen
  IC50: > 100 µM (active)

## O=Nc1ccc(NOC(=O)c2ccccc2Br)cc1
Large T antigen
  IC50: 30.1 µM (active)

## [O-][n+]1onc2c3c4c(n(O)c3ccc21)CCCC4
[5]
  AC50: 0.497 µM (active)

## Cc1ccn2c(NC(C)(C)C)c(-c3cccs3)nc2c1
[5]
  AC50: 1.58 µM (active)

## COc1ccc(C2SCC(=O)N2c2ccc(F)cc2)cc1 (stereo unspecified)
[5]
  AC50: 0.049 µM (active)

## CCOC(=O)c1nnsc1Nc1ccc(C)c(C)c1
[4]
  EC50: 104 µM (active)

## CN(C)c1ccc(N2C(=O)CC(Nc3ccc(N4CCOCC4)cc3)C2=O)cc1 (stereo unspecified)
Large T antigen
  IC50: 12.9 µM (active)

## CC(=O)Nc1ccc(C2=NN(Cc3nnc(-c4ccccc4)o3)C(=O)SC2)cc1
[4]
  EC50: > 260 µM (inactive)

## CN1C(=O)C2(Oc3ccccc3C3CC(c4ccccc4)=NN32)c2ccccc21 (stereo unspecified)
H4
  EC50: 14.6 µM (active)
[1]
  EC50: 11.8 µM (active)
[2]
  EC50: 31.6 µM (active)

## CCOC(=O)c1c(CN(C)C)n(C)c2ccc(OC(C)=O)cc12
[3]
  EC50: > 195 µM (not active)

## CCN(CC)c1ccc(/C=N\NC(N)=O)cc1
[7]
  IC50: 50.7 µM (active)
[5]
  AC50: 0.825 µM (active)

## Nc1ccccc1C(=O)N/N=C1\C2CN3CCN(C2)CC1(c1ccccc1)C3
H4
  EC50: 8.13 µM (active)
[1]
  EC50: > 120 µM (not active)
[2]
  EC50: > 120 µM (not active)

## Cc1ccc(OCCC(=O)N2CCN(c3ccc(O)cc3)CC2)cc1
Large T antigen
  IC50: 11.8 µM (active)

## COc1cccc2c(N/N=C/c3ccc(O)c(O)c3)cc(C)nc12
Large T antigen
  IC50: 23.8 µM (active)

## COc1cccc(CNc2nc3ccccc3n2C(C)C)c1O
[4]
  EC50: > 260 µM (inactive)

## CN1C(=O)NC(c2cccc(O)c2)C(C(=O)c2cccs2)C1(O)C(F)(F)F (stereo unspecified)
H4
  EC50: 3.94 µM (active)
[1]
  EC50: > 120 µM (not active)
[2]
  EC50: > 120 µM (not active)

## N#CC1=C(N)Oc2c(c(=O)oc3ccccc23)C1c1ccccc1OC(=O)c1cccs1 (stereo unspecified)
H4
  EC50: > 120 µM (not active)
[1]
  EC50: > 120 µM (not active)
[2]
  EC50: > 120 µM (not active)

## Cc1cc(CNC(=O)c2cccc(OC3CCN(S(=O)(=O)N(C)C)CC3)c2)on1
H4
  EC50: > 120 µM (not active)
[1]
  EC50: 8.49 µM (active)
[2]
  EC50: 10.8 µM (active)

## COc1ccc(/C=N/Nc2nc(N3CCCC3)nc(N3CCCC3)n2)cc1O
[7]
  IC50: 62.2 µM (active)
Large T antigen
  IC50: 10.2 µM (active)

## Cc1nc2sccn2c(=O)c1S(=O)(=O)Nc1ccc(N2CCOCC2)c(Cl)c1
[3]
  EC50: 92.2 µM (active)

## COCC/N=C1/Sc2nc3c(C)cccc3cc2CN1Cc1ccco1
[6]
  CC50: 39.2 µM (active)
Cytochrome P450 2C19
  AC50: 2.51 µM (inconclusive)
Large T antigen
  IC50: 67.5 µM (active)

## O=C(CN1CCN(c2ccc(O)cc2)CC1)Nc1ccc(S(=O)(=O)N2CCCC2)cc1
[5]
  AC50: 0.699 µM (active)

## COC(=O)c1cnc(N2CCCN(S(=O)(=O)c3ccc(C(F)(F)F)cc3)CC2)nc1C(F)(F)F
[4]
  EC50: > 260 µM (inactive)
[8]
  EC50: > 60 µM (not active)
[9]
  EC50: 3.03 µM (active)

## Cc1ccc(CCNC(=O)C2CCN(S(=O)(=O)c3ccc4c(c3)NC(=O)CO4)CC2)cc1
[4]
  EC50: > 260 µM (inactive)

## CN(C)c1cccc(C(=O)NC2CCCCCC2)c1
[5]
  AC50: 8.08 µM (active)

## Cc1cccc(NC(=O)c2sc(-c3ccccc3)nc2-c2ccc([N+](=O)[O-])cc2)c1
[8]
  EC50: > 60 µM (not active)
[3]
  EC50: > 195 µM (not active)
[9]
  EC50: 1.53 µM (active)

## Cc1cccc(/C=N/c2sc3c(c2C#N)CCN(Cc2ccccc2)C3)c1O
H4
  EC50: 20.2 µM (active)
[1]
  EC50: 15.2 µM (active)
[2]
  EC50: 30.1 µM (active)

## CN(C)c1ccc(CNC(=O)C2CCN(S(=O)(=O)c3ccc4c(c3)CCCC(=O)N4)CC2)cc1
[5]
  AC50: 5.99 µM (active)

## COCCCNC(=S)N/N=C/c1ccc(O)cc1O
Large T antigen
  IC50: 9.14 µM (active)

## CCOc1cc(C(c2c(O)nc(SC)nc2O)c2c(O)nc(SC)nc2O)ccc1O
Large T antigen
  IC50: > 100 µM (active)

## Cc1ccc(C)c(Cn2nnc3c(=O)[nH]c(C4CCN(C(=O)c5cccs5)CC4)nc32)c1
[4]
  EC50: > 260 µM (inactive)

## N#Cc1c(-c2ccccc2)c(-c2ccccc2)nn(CC(=O)NNC(=O)Nc2ccccc2)c1=O
H4
  EC50: > 120 µM (not active)
[1]
  EC50: > 120 µM (not active)
[2]
  EC50: 15.2 µM (active)

## O=C(CN(CC1CCCO1)S(=O)(=O)c1ccc(S(=O)(=O)NC2CC2)cc1)Nc1ccccc1 (stereo unspecified)
[4]
  EC50: > 260 µM (inactive)

## Cn1ccc(C(=O)Oc2ccc(C(=O)Nc3ccc(F)cc3F)cc2)n1
H4
  EC50: > 120 µM (not active)
[1]
  EC50: > 120 µM (not active)
[2]
  EC50: 16.8 µM (active)

## CC1Oc2ccccc2N(CC(=O)NCc2ccccc2)C1=O (stereo unspecified)
[3]
  EC50: > 195 µM (not active)

## CCOc1ccccc1/C=N/Nc1ccccc1[N+](=O)[O-]
H4
  EC50: 62.5 µM (inconclusive)
[1]
  EC50: 0.351 µM (active)
[2]
  EC50: 4.07 µM (active)

## NNC(=O)c1ccc(O)cc1
[5]
  AC50: 4.28 µM (active)

## O=S(=O)(Nc1ccncc1)c1ccc(Cl)cc1
[3]
  EC50: > 195 µM (not active)
